Results taken from PMC10238420, “Altered Signaling and Desensitization Responses in PTH1R Mutants Associated with Eiken Syndrome” (Communications Biology, 2023).

Experiments:
[1] = system: PTH1R-R485X; details: 30 min
Procedure: (§1) Images are representative of three independent experiments.
Data are representative of three independent experiments (a-d); or means ± SEM of three or four independent experiments (e, f). Bar heights in graphs of panels b and d indicate the means ± SEM of counts from the five cells shown by the individual data points. Scale bars in a and c indicate 10 μm.
Ligand-induced recruitment of β-arrestin2^YFP was assessed in GBR-24 cells, which are HEK293/glosensor (Gs22A)-derived cells stably expressing β-arrestin2^YFP [42]. The cells in six-well plates were transiently transfected with plasmid DNA encoding PTH1R-WT or mutant derivative, and 24 hours later seeded onto glass coverslips in 6-well plates. […] In some experiments, the cells were imaged by confocal microscopy using a Leica DMi8 inverted Microscope at ×400 magnification, and the images were processed using Leica Application Suite X (LAS X) software. Regions of interest were digitally expanded 3-5X to improve views.
Quantification of β-arrestin2^YFP clusters was performed using ImageJ software (vers. 1.53)[67]. The color images were converted to 8 bit and then 16 bit gray-scale, and the threshold was adjusted on a cell-by-cell basis to show distinct particles (interpreted as clusters of β-arrestin2^YFP in intracellular vesicles); threshold values ranged from ~ 20-60. The free-hand tool was used to define the area analyzed for each cell, and the Analyze Particle tool was used to obtain the number of particles, the total area, and the mean gray scale (intensity) of each particle for each cell.

[2] = biological target: T1, PTH1R-WT (Homo sapiens, UniProt Q03431); experiment: Fluorescence microscopy of ligand internalization and β-arrestin2YFP recruitment, GBR-24 cells, ImageJ; assay type: cell-based; details: 30 min
From the text: as §1
(§2) Scale bars in a and c indicate 10 μm.

[3] = biological target: T2, PTH1R-E35K (Homo sapiens, UniProt Q03431, E35K); experiment: as above; assay type: cell-based; details: 30 min
From the text: as §1, §2

[4] = biological target: T3, PTH1R-Y134S (Homo sapiens, UniProt Q03431, Y134S); experiment: as above; assay type: cell-based; details: 30 min
From the text: as §1, §2

[5] = biological target: PTH1R-R485X (Homo sapiens, UniProt Q03431); assay type: binding; details: % of maximum SB at PTHR1-WT; four experiments
Procedure: Bar heights indicate the means ± SEM of three individual experiments represented by the data points. […] Data are means (±SEM) of three (a) or four experiments.
(§8) Binding was assessed on confluent monolayers of transiently transfected intact Gs22a cells in 96-well plates. Binding reactions contained HB and 20,000–30,000 cpm/well of radioligand. […] The mixtures were then removed and the cells were rinsed twice with HB and lysed with 5 N NaOH and the lysates were counted for gamma irradiation in a gamma counter. […] After incubation for 2 h at 4 °C, the mixtures were removed, the cells were rinsed twice with HB, lysed with 5N NaOH, and the lysates were counted for gamma irradiation.
The fit values of max i mum SB, as r adi oac t i v e c ount s per mi nut e (cpm), with non-specif ic binding (1, 529±418

[6] = biological target: T1, PTH1R-WT; experiment: Competition binding vs 125I-LA-PTH*, intact Gs22a cells; details: % of maximum SB at PTHR1-WT; four experiments
From the text: (§3) Supplemental Table 4. Competition Binding Data.
(§4) Ligand-binding properties of PTH1R variants
(§5) Suppl ement al Tabl e 4. Radi ol i gand Bi n d i n g Dat a. […]
(§6) as compet i t or. […] The fit values of […]
(§7) Dat a ar e means (±SEM) of f our exper i ment s; p val ues ar e St udent ’s T t est compar i sons t o

[7] = biological target: T2, PTH1R-E35K; experiment: as above; details: four experiments
From the text: as §3, §4, §5, §6, §7

[8] = biological target: T4, PTH1R-H223R (Homo sapiens, UniProt Q03431, H223R); experiment: as above; details: % of maximum SB at PTHR1-WT; four experiments
From the text: as §3, §4, §5, §6, §7

[9] = biological target: T3, PTH1R-Y134S; experiment: as above; details: % of maximum SB at PTHR1-WT; four experiments
From the text: as §3, §4, §5, §6, §7

[10] = biological target: T4, PTH1R-H223R; experiment: Fluorescence microscopy of ligand internalization and β-arrestin2YFP recruitment, GBR-24 cells, ImageJ; assay type: cell-based; details: 10 nM, 30 min
From the text: as §1

[11] = biological target: T2, PTH1R-E35K; experiment: Total binding of 125I-PTHrP(1-36), intact Gs22a cells
Procedure: as §8

[12] = system: PTH1R-R485X
Procedure: as §8

[13] = biological target: T3, PTH1R-Y134S; experiment: Total binding of 125I-PTHrP(1-36), intact Gs22a cells
Procedure: as §8

[14] = biological target: T4, PTH1R-H223R; experiment: as above
Procedure: as §8

[15] = biological target: T1, PTH1R-WT; experiment: cAMP time course with ligand and after ligand washout (duration), Gs22a cells; assay type: cell-based; details: 1 nM, 90 min washout; all PTH1R variants
Procedure: Data are means (±SEM) of five (a), four (b, c, e) or three (d) separate experiments.
(§9) Fig. 7 Effects of Eiken mutation on duration of cAMP signaling and desensitization to ligand re-challenge. a Assays were performed in Gs22a cells transiently transfected to express PTH1R-WT or a mutant PTH1R. a Duration of initial cAMP signaling response. […] Response to Ligand rechallenge. After the washout-periods shown in panel a, the cells were rechallenged with the same ligand (1.0 nM) for 60 min and cAMP accumulation was assessed. […] P values indicate comparison by Student’s t test to pre-vehicle treatment: Data are means ± SEM from four separate experiments each in duplicate (b) or quadruplicate (a).
Basal and ligand-stimulated cAMP signaling was assessed via the glosensor cAMP reporter in Gs22a cells transiently transfected to express either the WT or a mutant hPTH1R in white 96-well plates at room temperature. […] The plate was then placed into a PerkinElmer Envision plate reader and luminescence, as counts per second (cps), was measured at 2-min intervals for 15 min, during which time luciferin uptake occurred and luminescence reached a near steady-state baseline level. The plate was then removed from the plate reader, CIDB alone (vehicle) or containing a test ligand at varying concentrations was added, and luminescence was again measured at 2 min intervals for an additional 30–60 min. […]

[16] = system: PTH1R-R485X; details: 1 nM; vs vehicle-pre-treated cells
Procedure: as §9
The cells were then rinsed twice with CIDB and incubated in CIDB for 90 min (washout phase); then rinsed again and incubated in CIDB/luciferin for an additional 10 min, and then treated with vehicle or rechallenged with the same ligand (1.0 nM) and incubations continued for a final 60-min (ligand re-challenge phase); luminescence was monitored at 2 min-intervals during each phase of incubation.

[17] = 30 nM TMR ligand (unlabeled: 10 nM)

## AVSEIQL L H D KGrKSIQD L R R R FFL H H L IAEIH TAEI.N H 2 [Ile^5-PTHrP(1-36)^TMR, tetramethyl rhodamine attached to the epsilon amino function of lysine-13]
[1]; [17]
  co-clustering of β-arrestin2YFP with ligand in endosomes, in words: remained dispersed in the cytoplasm
[2]; [17]
  co-clustering of β-arrestin2YFP with ligand in endosomes, in words: robust co-clustering of β-arrestin2^YFP
[3]; [17]
  co-clustering of β-arrestin2YFP with ligand in endosomes, in words: robust co-clustering of β-arrestin2^YFP
[4]; [17]
  co-clustering of β-arrestin2YFP with ligand in endosomes, in words: robust co-clustering of β-arrestin2^YFP

## AVAEIQLnLHQRAKWIQDARRRAFLHKLIAEIHTAEY.NH2 [125I-LA-PTH*, radioligand prepared by chloramine T oxidation with 125I-Na]
[5]
  maximum specific binding (SB) of radioligand: 107 ± 14%
[6]
  maximum specific binding (SB) of radioligand: 100 ± 0%
[7]; % of maximum SB at PTHR1-WT
  maximum specific binding (SB) of radioligand: 89 ± 11%
[7]; non-specific binding subtracted
  fit maximum SB of radioligand: 5,179±936 cpm
[8]
  maximum specific binding (SB) of radioligand: 114 ± 22%
[9]
  maximum specific binding (SB) of radioligand: 93 ± 14%

## AVSEIQLnLHNLGrKH L ASVERnLQWLRKKLQDVHNF.NH2 [PTH(1-34)^TMR, tetramethyl rhodamine attached to the epsilon amino function of lysine-13]
[1]; 10 nM
  co-localization of ligand clusters with β-arrestin2YFP, in words: did not co-localize in clusters
[2]; 10 nM
  co-localization of ligand clusters with β-arrestin2YFP, in words: co-localized with β-arrestin2^YFP
[3]; 10 nM
  co-localization of ligand clusters with β-arrestin2YFP, in words: co-localized with β-arrestin2^YFP
[4]; 10 nM
  co-localization of ligand clusters with β-arrestin2YFP, in words: co-localized with β-arrestin2^YFP
[10]
  co-localization of ligand clusters with β-arrestin2YFP, in words: co-localized with β-arrestin2^YFP

## AVSEH QL L H D KGKSIQD L R R R FFL H H L IAEIH TAEY.N H 2 [125I-PTHrP(1-36), radioligand prepared by chloramine T oxidation with 125I-Na]
[11]
  reduction of total binding vs PTH1R-WT: ~ 50%
[12]
  total binding vs PTH1R-WT, in words: comparable to that on PTH1R-WT
[13]
  reduction of total binding vs PTH1R-WT: ~ 50%
[14]
  total binding vs PTH1R-WT, in words: comparable to that on PTH1R-WT

## AVAEIQL MH QR AKWIQD AR R R AFL H KL IAEIH TAEI.OH [LA-PTH]
[15]
  residual cAMP signaling at end of washout, in words: elevated for all PTH1R variants
[16]
  response upon ligand rechallenge, in words: significantly blunted
